Results as given in patent US20030040105A1, “Microfluidic micromixer” (priority 1999, published 2003).

Molecular target: T1, streptavidin coated bead bearing fluorescein biotin (Streptomyces avidinii, UniProt P22629)
T1 construct: purchased Spherotech Inc., Libertyville, Ill
Test: unquenching of fluorescein biotin streptavidin beads by native biotin, flow cytometry
Assay type: binding
Conditions: streptavidin beads with quenched fluorescein biotin, typical
Procedure: Data are plotted as mean channel fluorescence (MCF) versus time for several concentrations of biotin. The binding of fluorescein biotin to streptavidin-coated beads shown in FIG. 12A is characterized by the quenching of fluorescence of particles bound relative to free fluorescein biotin. The quenching is relieved when free biotin is added. The base line fluorescence indicated by the constant signal on the right signifies the “ostrich quenched” fluorescein biotin beads. Typically, this type of quenching, “ostrich quenching,” occurs when the fluorescein moiety associates with the streptavidin-binding pocket adjacent to the biotin-moiety bearing site FIG. 12A. […] The subsequent increase in fluorescence signal on right is caused by homogeneously mixing native biotin with the microspheres causing the unquenching of FITC-biotin in the streptavidin receptor pocket on the bead surface.
A 200 μL volume suspension of streptavidin coated beads (3.7×10^7 beads/mL) was diluted to 4 mL in TRIS buffer, (100 mM Tris HCl, 150 mM NaCl, 0.1% BSA, 0.02% sodium azide, pH 7.5). Subsequently, 1.0 μL of 8.7×10^−6 M fluorescein biotin solution was added to the beads. The sample was continuously agitated for 20 minutes, then centrifuged and resuspended in 6.0 mL of buffer. The final bead suspension comprised of ˜1.1 million beads/mL with a million fluorescein biotin molecules per bead. […]

T1 sequence (P22629 25-183): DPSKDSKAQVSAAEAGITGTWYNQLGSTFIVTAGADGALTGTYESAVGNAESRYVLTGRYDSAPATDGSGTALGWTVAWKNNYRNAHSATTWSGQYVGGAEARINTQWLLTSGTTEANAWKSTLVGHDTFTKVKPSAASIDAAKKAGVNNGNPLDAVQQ

## O=C(O)CCCC[C@@H]1SC[C@@H]2NC(=O)N[C@@H]21 [native biotin, Biotin]
  increase in fluorescence intensity after mixing with excess native biotin: eight-fold increase
